# Key:
# SN12C cells [1] = assay: Apoptosis (Caspase 3/7-Glo), SN12C; type: cell-based, human; conditions: 72 h
# Description: (§1) Apoptosis was determined using Caspase 3/7-Glo assay kit (Promega) following the manufacturer's instructions. Briefly, 2000 cells per well were plated in 96 well plates and cultured for 72 h. […] Caspase 3/7 activity was measured using a luminometer. Luminescence values were normalized by cell numbers.
# ACHN cells [2] = assay: Apoptosis (Caspase 3/7-Glo), ACHN; type: cell-based, human
# Description: as §1
# [3] = system: PI3K, mTORC1 and mTORC2 signaling; assay: Western blotting of PI3K-AKT-mTOR signaling; type: cell-based, human
# Description: Cells were plated in 6 well dishes and treated the following day with the indicated agents. Treatments were for 24 hours, after which cells were washed with ice cold PBS and lysed with RIPA buffer (Sigma). Phosphatase inhibitor cocktail set II and protease inhibitor cocktail set III (EMD Millipore) were added at the time of lysis. Lysates were centrifuged at 15,000 g×10 min at 4 degrees C. Protein concentrations were calculated based on a BCA assay (Thermo Scientific) generated standard curve. Proteins were resolved using the NuPAGE Novex Mini Gel system on 4% to 12% Bis-Tris Gels (Invitrogen). For western blotting, equal amounts of cell lysates (15-20 μg of protein) were resolved with SDSPAGE, and transferred to membranes. The membrane was probed with primary antibodies, washed, and then incubated with corresponding fluorescent secondary antibodies and washed. The fluorescent signal was captured using LI-COR (Lincoln, Nebr.) Odyssey Imaging System, and fluorescent intensity was quantified using the Odyssey software where indicated. The following antibodies were used for Western blots: p-S6 (S240/244), S6, LC3B, p-Akt(S473), p-Akt(T308), Akt, cleaved caspase3 (Cell Signaling Technologies). p-Stat3 (Y705), Stat3 and β-actin (AC15) (Abcam). Ki67 (Dako) and cleaved caspase3 (Cell Signaling Technologies) were used for immunohistochemistry. […] BX795 and GDC0941 were purchased from Sigma.
# ACHN cells [4] = assay: Cell viability (CellTiter-Glo), ACHN; type: cell-based, human; conditions: for proliferation (cell viability): ACHN, 3 days
# Description: Cell viability assays were performed by plating 2000 cells/well in 96-well plates in triplicate and treating the following day with the indicated agent. The experiment was continued for 3 days and then cell viability was determined using CellTiter-Glo assay kit (Promega).
# The assay was measured using a luminometer. […] Experimental results are the average of at least three independent experiments.
# SN12C cells [5] = assay: Cell viability (CellTiter-Glo), SN12C; type: cell-based, human; conditions: 3 days
# Description: Cell viability assays were performed by plating 2000 cells/well in 96-well plates in triplicate and treating the following day with the indicated agent. The experiment was continued for 3 days and then cell viability was determined using CellTiter-Glo assay kit (Promega). The assay was measured using a luminometer. […] Experimental results are the average of at least three independent experiments.
# ACHN cells [6] = assay: High content imaging screen of 116 small molecule inhibitors for p62 and pS6; type: cell-based, human; conditions: HCI screen, 72 hr; for p62 expression and phosphorylation of S6: 7-point dilution series
# Excerpt: We used a metastatic human RCC cell line, ACHN. Small molecule inhibitors have been extensively used in RCC over the last decade. […] Importantly, p62 is an autophagy substrate that is degraded along with its cargo, and so is expected to decrease with induction of autophagy. Therefore, we monitored p62 steady-state levels as an initial screen of autophagy flux. Next, we combined the measurement of the p62 with a measurement of mTORC1 activity an independent readout to evaluate autophagy. mTORC1 plays the central role in the anabolic process by increasing protein content through ribosomal biogenesis and elongation of protein translation. Specifically, mTORC1 induces mRNA translation by inducing the activation of p70S6 kinase and the subsequent phosphorylation of the S6 ribosomal protein. To ensure increased cellular biomass, mTORC1 downregulates autophagy. We chose the phosphorylation status of the downstream target of mTORC1 signaling, ribosomal S6 (hereafter S6) as a readout for mTORC1 activity.
# To provide a straightforward method for detecting the induction of autophagy, we monitored ACHN cells for small molecule inhibitors which decreased the antibody labelled levels of p62 protein and pS6 phosphorylation (see methods below for detailed experiment procedure). To that end, automated high content imaging (HCl) microscopy was used to detect induction of autophagy as documented by the […] by p62 protein expression and mTORC1 inhibition by the decrease in S6 phosphorylation. The HCl assay was optimized for 384-well plate screening. Drug screening plates were designed and created as previously described.
# A 7-point dilution series of 116 small molecule inhibitors covering a 1000× concentration range were plated into three, 384-well plates using the EP Motion automated dispensing system. Control wells with equal volumes of DMSO were included as negative controls. ACHN cells were grown, trypsinized counted, and plated directly into warm drug plates using Multidrop combi dispenser. Plates were incubated for 72 hr and subsequently imaged on the Olympus ScanR Platform at 10× magnification performing 4 images per well in 384 well plates. Single-cell nuclear and cytoplasmic fluorescent intensities were calculated using the Olympus ScanR Analysis Software: the DAPI-positive region of each cell was used as a boundary to quantitate nuclei counts for analysis of cell growth and integrated nuclear DNA staining intensity was used for cell cycle analysis. A 10-pixel extension of the nuclear region (and not including the nuclear region) was used to quantitate cytoplasmic signal of immunofluorescent staining of p62 protein and phosphorylation of S6. Mean signal intensity of each marker in all cells per well was used as the metric for cytoplasmic marker expression (average intensity of pS6 and p62). Unsupervised hierarchical clustering was used to identify compounds that produced similar pS6 and p62 dose response phenotypes after treatment.
# ACHN cells [7] = assay: Cellular respiration (XF96 Seahorse, ECAR and OCR); type: cell-based, human; conditions: 24 h
# Description: Oxygen consumption and extracellular acidification rates were carried out in a XF96 Seahorse Analyzer (Seahorse Bioscience, Billerica, Mass., USA). Cells were plated in the wells of 96-well plates (8×10^3 cells/well; XF96 plates, Seahorse Bioscience, North Billerica, Mass.) and incubated at 37° C. overnight. The next day, cells were treated with indicated drugs for 24 hours and then the medium was changed to XF Assay Medium and loaded with glucose, oligomycin, and 2-DG, respectively, as manufacture's recommendation.
# ACHN cells [8] = assay: Lipid droplet staining (Bodipy 493/503), ACHN; type: cell-based, human
# Description: Cells were grown on coverslips then treated with drug for 24 hours. Cells were fixed in 4% paraformaldehyde for 15 min, rinsed with PBS. Cells were washed with a 1% saponin solution for 15 min at room temperature then washed several times in PBS to remove detergent. Cells were then incubated in Bodipy (ThermoFisher #D3922) at a final concentration of 1 uM for 10 min. Bodipy was removed and slides were rinsed with PBS then air dried and mounted on slides using Dako mounting media with Dapi.
# mTORC1 = assay: Autophagy induction and mTORC1 inhibition by JAK inhibitors not contained in the library; type: cell-based
smiles,measurement,setting,value
O=C(NCCCNc1nc(Nc2cccc(NC(=O)N3CCCC3)c2)ncc1I)c1cccs1 [BX795],apoptosis (cleaved-caspase 3/7),SN12C cells [1],little or no effect on apoptosis
same,apoptosis (cleaved-caspase 3/7),"ACHN cells [2]; ACHN, 72 h",little or no effect on apoptosis
same,mTORC1 or mTORC2 signaling (AKT S473 and S6 phosphorylation),[3],not able to inhibit mTORC1 or mTORC2 signaling
same,proliferation (cell viability),ACHN cells [4],some anti-proliferative effects
same,proliferation (cell viability),SN12C cells [5],some anti-proliferative effects
CC(C)n1nc(-c2cc3cc(O)ccc3[nH]2)c2c(N)ncnc21 [PP-242],p62 expression and phosphorylation of S6,ACHN cells [6],reduced both p62 expression and phosphorylation of S6
"CCCCCCCC/C=C\CCCCCCCCOCCOP(=O)([O-])OCC[N+](C)(C)C [OOEPC, oleyloxyethylphosphocholine]",ECAR and OCR on addition to the CYT387-MK2206 combination,ACHN cells [7],markedly decreased ECAR and OCR
same,basal OCR on addition to the CYT387-MK2206 combination,ACHN cells [7],marked decrease in the basal OCR
same,spare respiratory capacity on addition to the CYT387-MK2206 combination,ACHN cells [7],significantly reduced the spare respiratory capacity
same,"apoptosis (Caspase3/7 activity) on addition to CYT387, MK2206, CYT387+MK2206",ACHN cells [2],significantly increased apoptosis
same,"LD abundance on addition to CYT387, MK2206 and CYT387-MK2206 co-treated cells",ACHN cells [8]; 24 hrs,significantly reduced the LD abundance
same,"proliferation on co-treatment with CYT387, MK2206, CYT387+MK2206",ACHN cells [4],minimal additional effect on proliferation
CCc1c(C(=O)C(N)=O)c2c(OCC(=O)O)cccc2n1Cc1ccccc1 [varespladib],apoptosis on addition to CYT387-MK2206 treated cells,ACHN cells [2],increased apoptosis
same,LDs on addition to CYT387-MK2206 treated cells,ACHN cells [8],decreased LDs
CN[C@@H]1C[C@H]2O[C@@](C)([C@@H]1OC)n1c3ccccc3c3c4c(c5c6ccccc6n2c5c31)C(=O)NC4 [Staurosporine],p62 expression and phosphorylation of S6,ACHN cells [6],reduced both p62 expression and phosphorylation of S6
CS(=O)(=O)N1CCN(Cc2cc3nc(-c4cccc5[nH]ncc45)nc(N4CCOCC4)c3s2)CC1 [GDC-0941],effect on mTORC1 activity in cells treated with CYT387,[3]; added to CYT387,additive inhibitory effect on mTORC1 activity
same,proliferation (cell viability),ACHN cells [4],some anti-proliferative effects
same,proliferation (cell viability),SN12C cells [5],some anti-proliferative effects
Oc1nc(-c2ccc(C(F)(F)F)cc2)nc2c1CSCC2 [XAV939],induction of autophagy / autophagic flux,ACHN cells [6],induce autophagy
CC(C)C[C@H](NC(=O)[C@H](Cc1ccccc1)NC(=O)c1cnccn1)B(O)O [Velcade],p62 expression and phosphorylation of S6,ACHN cells [6],reduced both p62 expression and phosphorylation of S6
O=S(=O)(NCCNC/C=C/c1ccc(Br)cc1)c1cccc2cnccc12 [H89],p62 expression and phosphorylation of S6,ACHN cells [6],reduced both p62 expression and phosphorylation of S6
CN1CC[C@H](c2c(O)cc(O)c3c(=O)cc(-c4ccccc4Cl)oc23)[C@H](O)C1 [Flavopiridol],p62 expression and phosphorylation of S6,ACHN cells [6],reduced both p62 expression and phosphorylation of S6
Cn1c(=O)n(-c2ccc(C(C)(C)C#N)cc2)c2c3cc(-c4cnc5ccccc5c4)ccc3ncc21 [BEZ-235],p62 expression and phosphorylation of S6,ACHN cells [6],reduced both p62 expression and phosphorylation of S6
O=C(c1ccc(/C=C/c2n[nH]c3ccccc23)cc1)N1CCNCC1 [KW2449],induction of autophagy / autophagic flux,ACHN cells [6],induce autophagy
C[C@]12O[C@H](C[C@]1(O)CO)n1c3ccccc3c3c4c(c5c6ccccc6n2c5c31)CNC4=O [CEP-701],autophagy induction,mTORC1,potently induced autophagy
same,mTORC1 inhibition,mTORC1,inhibited mTORC1

# Reference: US20190142835A1, “INHIBITION OF AUTOPHAGY USING PHOSPHOLIPASE A2 INHIBITORS” (OREGON HEALTH & SCIENCE UNIVERSITY, priority 2017, published 2019)
